Assay results reported in US10669272B2, “Substituted naphthyridinone compounds useful as T cell activators” (BRISTOL-MYERS SQUIBB COMPANY, priority 2018, dated 2020).
Read-outs that look alike come from different tables or passages of the source.

Assays:
human DGKα = target: T1, human DGKα (Homo sapiens, UniProt P23743); test: DGKα LIPGLO assay (extruded liposome substrate), in vitro DGK inhibition; format: biochemical; conditions: liposome (LIPGLO) assay; read-out: DGKa LIPGLO IC50
T1 construct: TVMV protease cleavage site (C); Hexa-His (C); made in house; host or cells: Sf9 insect cells (baculovirus, Bac-to-Bac)

human DGKζ = target: T2, human DGKζ (Homo sapiens, UniProt Q13574); test: DGKζ LIPGLO assay (extruded liposome substrate), in vitro DGK inhibition; format: biochemical; conditions: liposome (LIPGLO) assay; read-out: DGKz LIPGLO IC50
T2 construct: TVMV protease cleavage site (C); Hexa-His (C); made in house; host or cells: Sf9 insect cells (baculovirus, Bac-to-Bac)

Human venous whole blood = test: Human whole blood IFN-γ assay; format: cell-based; conditions: human whole blood, normalized to 3 μM reference compound with anti-CD3 plus anti-CD28 as 100% activation, read-out: INFg Whole Blood Normalized Agonist EC50;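 note: blood from healthy donors exposed to compound for 1 h before stimulation with anti-CD3 and anti-CD28 at 1 µg/mL each, IFN-γ quantified in supernatant by AlphaLISA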
Procedure: Human Whole Blood IFN-γ Assay
Human venous whole blood (22.5 μL per well), obtained from healthy donors, was pre-treated with compounds for one hour at 37° C. in a humidified 95% air/5% CO2 incubator. The blood was stimulated with 2.5 μL anti-human CD3 and anti-CD28 mAb at a final concentration of 1 μg/mL each for 24 hours at 37° C. IFN-γ in the supernatants was measured using AlphLISA kit (Cat # AL217).

T1 sequence (P23743 with tags, fused parts or gaps): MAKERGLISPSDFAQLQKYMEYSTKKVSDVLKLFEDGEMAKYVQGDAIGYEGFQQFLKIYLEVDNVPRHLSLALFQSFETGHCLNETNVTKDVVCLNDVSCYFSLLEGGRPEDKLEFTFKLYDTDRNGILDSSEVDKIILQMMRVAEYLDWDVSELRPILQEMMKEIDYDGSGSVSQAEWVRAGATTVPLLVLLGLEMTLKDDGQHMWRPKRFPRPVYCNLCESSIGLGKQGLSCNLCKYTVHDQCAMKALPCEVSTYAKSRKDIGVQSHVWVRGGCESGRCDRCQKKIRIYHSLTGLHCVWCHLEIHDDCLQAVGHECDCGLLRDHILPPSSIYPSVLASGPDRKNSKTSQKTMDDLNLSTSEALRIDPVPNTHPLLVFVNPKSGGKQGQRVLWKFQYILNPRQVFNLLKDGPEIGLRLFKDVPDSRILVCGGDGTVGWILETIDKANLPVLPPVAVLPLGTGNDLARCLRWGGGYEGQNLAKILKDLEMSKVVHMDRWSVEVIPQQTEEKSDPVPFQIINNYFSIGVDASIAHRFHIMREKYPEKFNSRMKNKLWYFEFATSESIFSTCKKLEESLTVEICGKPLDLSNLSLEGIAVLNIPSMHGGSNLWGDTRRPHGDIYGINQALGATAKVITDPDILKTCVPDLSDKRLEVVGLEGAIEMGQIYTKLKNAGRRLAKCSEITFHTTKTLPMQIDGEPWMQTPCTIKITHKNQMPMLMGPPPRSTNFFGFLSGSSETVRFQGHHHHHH
T2 sequence (Q13574 with tags, fused parts or gaps isoform Q13574-4): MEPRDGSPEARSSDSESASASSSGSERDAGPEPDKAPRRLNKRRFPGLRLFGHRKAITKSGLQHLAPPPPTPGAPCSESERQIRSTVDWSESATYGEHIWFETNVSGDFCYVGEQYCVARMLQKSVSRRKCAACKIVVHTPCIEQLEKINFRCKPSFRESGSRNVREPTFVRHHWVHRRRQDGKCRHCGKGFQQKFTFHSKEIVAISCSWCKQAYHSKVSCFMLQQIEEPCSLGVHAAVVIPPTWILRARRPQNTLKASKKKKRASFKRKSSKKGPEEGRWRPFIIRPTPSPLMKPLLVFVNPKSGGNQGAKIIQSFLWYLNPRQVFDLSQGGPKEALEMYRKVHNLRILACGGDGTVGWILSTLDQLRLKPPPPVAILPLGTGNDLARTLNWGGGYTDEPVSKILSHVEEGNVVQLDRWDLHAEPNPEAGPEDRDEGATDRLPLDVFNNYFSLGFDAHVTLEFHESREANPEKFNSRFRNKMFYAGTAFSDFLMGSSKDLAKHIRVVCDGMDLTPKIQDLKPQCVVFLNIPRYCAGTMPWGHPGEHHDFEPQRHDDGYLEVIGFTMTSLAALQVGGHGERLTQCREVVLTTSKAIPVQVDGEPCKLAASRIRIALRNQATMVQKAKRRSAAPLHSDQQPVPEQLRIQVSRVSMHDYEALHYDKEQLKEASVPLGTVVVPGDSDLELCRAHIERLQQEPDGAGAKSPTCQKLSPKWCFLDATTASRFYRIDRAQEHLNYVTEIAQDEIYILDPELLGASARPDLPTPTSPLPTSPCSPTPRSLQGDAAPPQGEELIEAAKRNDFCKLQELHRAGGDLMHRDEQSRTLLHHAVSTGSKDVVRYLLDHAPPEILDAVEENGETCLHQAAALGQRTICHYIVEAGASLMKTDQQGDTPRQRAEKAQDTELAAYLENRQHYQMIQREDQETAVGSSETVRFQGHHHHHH

## CC[C@@H]1CN(c2cc(=O)n(C)c3ccc(C#N)nc23)[C@@H](C)CN1Cc1ccc2c(c1)OC(F)(F)O2 [Example 1082]
Human DGKα
  IC50: 5200 nM
Human DGKζ
  IC50: 1500 nM
Human venous whole blood; Homo sapiens, 24 h
  EC50: 580 nM

## CC[C@@H]1CN(c2cc(=O)n(C)c3ccc(C#N)nc23)[C@@H](C)CN1C(c1ccc(F)cc1)c1ccc(F)cc1 [Example 1097]
Human DGKα
  IC50: 400 nM
Human DGKζ
  IC50: 210 nM
Human venous whole blood; Homo sapiens, 24 h
  EC50: 660 nM

## CC[C@@H]1CN(c2cc(=O)n(C)c3ccc(C#N)nc23)[C@@H](C)CN1C(c1ccc(C)cc1)c1ccc(C)cc1 [Example 1098]
Human DGKα
  IC50: 570 nM
Human DGKζ
  IC50: 300 nM
Human venous whole blood; Homo sapiens, 24 h
  EC50: 150 nM

## CC[C@@H]1CN(c2cc(=O)n(C)c3ccc(C#N)nc23)[C@@H](C)CN1C(c1ccc(F)cc1)c1ccc(Cl)cc1 (stereo partly drawn) [Example 1101]
Human DGKα
  IC50: 350 nM
Human DGKζ
  IC50: 240 nM
Human venous whole blood
  EC50: 230 nM

## CC[C@@H]1CN(c2cc(=O)n(C)c3ccc(C#N)nc23)[C@@H](C)CN1C(c1ccc(Cl)cc1)c1ccc(F)cn1 (stereo partly drawn) [Example 1111]
Human DGKα
  IC50: 200 nM
Human DGKζ
  IC50: 78 nM
Human venous whole blood
  EC50: 310 nM

## CC[C@@H]1CN(c2cc(=O)n(C)c3ccc(C#N)nc23)[C@@H](C)CN1C(c1ccc(F)cc1)c1cccc(C(F)(F)F)n1 (stereo partly drawn) [Example 1112]
Human DGKα
  IC50: 1200 nM
Human DGKζ
  IC50: 150 nM
Human venous whole blood
  EC50: 170 nM

## CC[C@@H]1CN(c2cc(=O)n(C)c3ccc(C#N)nc23)[C@@H](C)CN1C(c1ccc(F)cc1)c1cccc(C(F)(F)F)n1 (stereo partly drawn) [Example 1113]
Human DGKα
  IC50: 620 nM
Human DGKζ
  IC50: 310 nM
Human venous whole blood
  EC50: 1000 nM

## CC[C@@H]1CN(c2cc(=O)n(C)c3ccc(C#N)nc23)[C@@H](C)CN1C(c1ccc(F)cc1)c1nc(C2CC2)no1 (stereo partly drawn) [Example 1117]
Human DGKα
  IC50: 15 nM
Human DGKζ
  IC50: 17 nM
Human venous whole blood; Homo sapiens, 24 h
  EC50: 150 nM

## CC[C@H]1CN(C(c2ccc(F)cc2)c2ccc(F)cc2)[C@H](C)CN1c1cc(=O)n(C)c2ccc(C#N)nc12 [Example 1118]
Human DGKα
  IC50: 400 nM
Human DGKζ
  IC50: 580 nM
Human venous whole blood; Homo sapiens, 24 h
  EC50: 360 nM

## CC[C@H]1CN(C(c2ccc(C)cc2)c2ccc(C)cc2)[C@H](C)CN1c1cc(=O)n(C)c2ccc(C#N)nc12 [Example 1119]
Human DGKα
  IC50: 1000 nM
Human DGKζ
  IC50: 430 nM
Human venous whole blood; Homo sapiens, 24 h
  EC50: 17000 nM

## CC[C@H]1CN(C(c2ccc(F)cc2)c2ccc(C#N)cc2)[C@H](C)CN1c1cc(=O)n(C)c2ccc(C#N)nc12 (stereo partly drawn) [Example 1123]
Human DGKα
  IC50: 1200 nM
Human DGKζ
  IC50: 4700 nM
Human venous whole blood; Homo sapiens, 24 h
  EC50: 2600 nM

## CC[C@H]1CN(C(c2ccc(F)cc2)c2ccc(C#N)cc2)[C@H](C)CN1c1cc(=O)n(C)c2ccc(C#N)nc12 (stereo partly drawn) [Example 1124]
Human DGKα
  IC50: 880 nM
Human DGKζ
  IC50: 3100 nM
Human venous whole blood
  EC50: 1400 nM

## CC[C@H]1CN(C(c2ccc(F)cc2)c2ccc(Cl)cc2)[C@H](C)CN1c1cc(=O)n(C)c2ccc(C#N)nc12 (stereo partly drawn) [Example 1127]
Human DGKα
  IC50: 680 nM
Human DGKζ
  IC50: 2400 nM
Human venous whole blood; Homo sapiens, 24 h
  EC50: 520 nM

## CC[C@H]1CN(C(c2ccc(F)cc2)c2ccc(Cl)cc2)[C@H](C)CN1c1cc(=O)n(C)c2ccc(C#N)nc12 (stereo partly drawn) [Example 1128]
Human DGKα
  IC50: 730 nM
Human DGKζ
  IC50: 940 nM
Human venous whole blood
  EC50: 550 nM

## CC[C@H]1CN(Cc2c(F)cc(F)cc2F)[C@H](C)CN1c1cc(=O)n(C)c2ccc(C#N)nc12 [Example 1148]
Human DGKα
  IC50: 38 nM
Human DGKζ
  IC50: 160 nM
Human venous whole blood; Homo sapiens, 24 h
  EC50: 1200 nM

## CC[C@H]1CN(Cc2cc(F)c(F)c(F)c2)[C@H](C)CN1c1cc(=O)n(C)c2ccc(C#N)nc12 [Example 1149]
Human DGKα
  IC50: 650 nM
Human DGKζ
  IC50: 3500 nM
Human venous whole blood; Homo sapiens, 24 h
  EC50: 510 nM

## Cc1ccc(C(c2cccc(F)c2)N2C[C@H](C)N(c3cc(=O)n(C)c4ccc(C#N)nc34)C[C@H]2CO)nc1 (stereo partly drawn) [Example 1154]
Human DGKα
  IC50: 8100 nM
Human DGKζ
  IC50: 50000 nM
Human venous whole blood; Homo sapiens, 24 h
  EC50: 2400 nM

## COC[C@@H]1CN(c2cc(=O)n(C)c3ccc(C#N)nc23)[C@@H](C)CN1Cc1cc(F)c(F)c(F)c1 [Example 1161]
Human DGKα
  IC50: 18000 nM
Human DGKζ
  IC50: 330 nM
Human venous whole blood; Homo sapiens, 24 h
  EC50: 15000 nM

## CC(=O)NC[C@@H]1CN(c2cc(=O)n(C)c3ccc(C#N)nc23)[C@@H](C)CN1C(c1ccc(F)cc1)c1ccc(F)cc1 [Example 1165, N-(((2R,5S)-1-(bis(4-fluorophenyl)methyl)-4-(6-cyano-1-methyl-2-oxo-1,2-dihydro-1,5-naphthyridin-4-yl)-5-methylpiperazin-2-yl)methyl)acetamide]
Human DGKα
  IC50: 3400 nM
Human DGKζ
  IC50: 1100 nM
Human venous whole blood; Homo sapiens, 24 h
  EC50: 240 nM

## COC(=O)NC[C@@H]1CN(c2cc(=O)n(C)c3ccc(C#N)nc23)[C@@H](C)CN1C(c1ccc(F)cc1)c1ccc(F)cc1 [Example 1166, methyl (((2R,5S)-1-(bis(4-fluorophenyl)methyl)-4-(6-cyano-1-methyl-2-oxo-1,2-dihydro-1,5-naphthyridin-4-yl)-5-methylpiperazin-2-yl)methyl)carbamate]
Human DGKα
  IC50: 1800 nM
Human DGKζ
  IC50: 370 nM
Human venous whole blood; Homo sapiens, 24 h
  EC50: 350 nM

## C[C@H]1CN(C(c2ccc(F)cc2)c2ccc(F)cc2)[C@H](CN2CC(O)C2)CN1c1cc(=O)n(C)c2ccc(C#N)nc12 [Example 1168]
Human DGKα
  IC50: 83000 nM
Human DGKζ
  IC50: 60000 nM
Human venous whole blood; Homo sapiens, 24 h
  EC50: 20000 nM

## C[C@H]1CN(C(c2ccc(F)cc2)c2ccc(F)cc2)[C@H](CN(C)C)CN1c1cc(=O)n(C)c2ccc(C#N)nc12 [Example 1169]
Human DGKα
  IC50: 39000 nM
Human DGKζ
  IC50: 6200 nM
Human venous whole blood; Homo sapiens, 24 h
  EC50: 2300 nM

## C[C@@H]1CN(C(c2ccc(F)cc2)c2ccc(F)cc2)[C@@H](CO)CN1c1cc(=O)n(C)c2ccc(C#N)nc12 [Example 1172, 8-((2R,5R)-4-(bis(4-fluorophenyl)methyl)-5-(hydroxymethyl)-2-methylpiperazin-1-yl)-5-methyl-6-oxo-5,6-dihydro-1,5-naphthyridine-2-carbonitrile]
Human DGKα
  IC50: 22000 nM
Human DGKζ
  IC50: 3200 nM
Human venous whole blood; Homo sapiens, 24 h
  EC50: 420 nM

## Cc1ccc(C(c2ccc(C)cc2)N2C[C@@H](C)N(c3cc(=O)n(C)c4ccc(C#N)nc34)C[C@@H]2CO)cc1 [Example 1173]
Human DGKα
  IC50: 10000 nM
Human DGKζ
  IC50: 980 nM
Human venous whole blood; Homo sapiens, 24 h
  EC50: 1400 nM

## C[C@@H]1CN(C(c2ccc(F)cc2)c2ccc(Cl)cc2)[C@@H](CO)CN1c1cc(=O)n(C)c2ccc(C#N)nc12 (stereo partly drawn) [Example 1175]
Human DGKα
  IC50: 21000 nM
Human DGKζ
  IC50: 1000 nM
Human venous whole blood; Homo sapiens, 24 h
  EC50: 20000 nM

## C[C@@H]1CN(Cc2c(F)cc(F)cc2F)[C@@H](CO)CN1c1cc(=O)n(C)c2ccc(C#N)nc12 [Example 1182]
Human DGKα
  IC50: 34000 nM
Human DGKζ
  IC50: 1200 nM
Human venous whole blood; Homo sapiens, 24 h
  EC50: 20000 nM

## COC[C@H]1CN(c2cc(=O)n(C)c3ccc(C#N)nc23)[C@H](C)CN1C(c1ccc(F)cc1)c1ccc(F)cc1 [Example 1183, 8-((2R,5R)-4-(bis(4-fluorophenyl)methyl)-5-(methoxymethyl)-2-methylpiperazin-1-yl)-5-methyl-6-oxo-5,6-dihydro-1,5-naphthyridine-2-carbonitrile]
Human DGKα
  IC50: > 250000 nM
Human DGKζ
  IC50: 8900 nM
Human venous whole blood; Homo sapiens, 24 h
  EC50: 9200 nM

## CC[C@@H]1CN(c2cc(=O)n(C)c3ccc(C#N)nc23)[C@@H](C)CN1C(c1ccc(OC(F)(F)F)cc1)C1CC1 (stereo partly drawn) [Example 1190]
Human DGKα
  IC50: 2300 nM
Human DGKζ
  IC50: 5900 nM
Human venous whole blood; Homo sapiens, 24 h
  EC50: 1200 nM

## CC[C@@H]1CN(c2cc(=O)n(C)c3ccc(C#N)nc23)[C@@H](C)CN1Cc1ccc(C(F)(F)F)cc1C(F)(F)F [Example 1197]
Human DGKα
  IC50: 9500 nM
Human DGKζ
  IC50: 1600 nM
Human venous whole blood; Homo sapiens, 24 h
  EC50: 3500 nM

## CC(c1cc(OC(F)(F)F)ccc1F)N1C[C@H](C)N(c2cc(=O)n(C)c3ccc(C#N)nc23)C[C@H]1C (stereo partly drawn) [Example 1203]
Human DGKα
  IC50: 3000 nM
Human DGKζ
  IC50: 1600 nM
Human venous whole blood
  EC50: 20000 nM

## CCC(c1cc(OC(F)(F)F)ccc1F)N1C[C@H](C)N(c2cc(=O)n(C)c3ccc(C#N)nc23)C[C@H]1C (stereo partly drawn) [Example 1207]
Human DGKα
  IC50: 14000 nM
Human DGKζ
  IC50: 1400 nM
Human venous whole blood
  EC50: 13000 nM

## CCC(c1ccc(C2CC2)cc1F)N1C[C@H](C)N(c2cc(=O)n(C)c3ccc(C#N)nc23)C[C@H]1C (stereo partly drawn) [Example 1218]
Human DGKα
  IC50: 67 nM
Human DGKζ
  IC50: 69 nM
Human venous whole blood; Homo sapiens, 24 h
  EC50: 320 nM

## CCC(c1ccc(C2CC2)cc1F)N1C[C@H](C)N(c2cc(=O)n(C)c3ccc(C#N)nc23)C[C@H]1C (stereo partly drawn) [Example 1219]
Human DGKα
  IC50: 67 nM
Human DGKζ
  IC50: 69 nM
Human venous whole blood
  EC50: 320 nM

## CC(c1cccc(C(F)F)n1)N1C[C@H](C)N(c2cc(=O)n(C)c3ccc(C#N)nc23)C[C@H]1C (stereo partly drawn) [Example 1222]
Human DGKα
  IC50: 16 nM
Human DGKζ
  IC50: 110 nM
Human venous whole blood; Homo sapiens, 24 h
  EC50: 520 nM

## CC(c1cccc(C(F)F)n1)N1C[C@H](C)N(c2cc(=O)n(C)c3ccc(C#N)nc23)C[C@H]1C (stereo partly drawn) [Example 1223]
Human DGKα
  IC50: 16 nM
Human DGKζ
  IC50: 110 nM
Human venous whole blood
  EC50: 520 nM
